Tested on: rat intestine (jejunum, ileum, colon)
Assay: Ussing chamber intestinal permeability of NOVO
Format: in vitro ADME
Conditions: jejunum vs ileum and colon; Figure 1
Description: The intestinal permeability of CAP in vitro was performed using Ussing chamber. […] NOVO was also prepared in HEPES buffer to yield final concentration at 5, 10, 25, 50, 100, and 200 μM. Animal intestinal segments for the permeability study were prepared in accordance with the experimental method as described previously ([Yodoya et al., 1994]; [Wallon et al., 2005]; [Duan et al., 2013]). Briefly, male SD rats, weighting 240–260 g, were fasted for 18 h before each experiment and anesthetized by injecting 10 % chloral hydrate anesthesia (i.p.). Different portions of the rat intestine were excised and flushed with HEPES buffer, including jejunum (after the first 5 cm of the top of small intestine), ileum (the distal part of small intestine) and colon (proximal to cecal-colonic junction), and incubated in the ice-cold HEPES buffer. Next, 3–4 cm of the intestine was clipped, and the serosa was removed rapidly on an ice-cold glass. The intestinal segments were fixed in the Ussing chamber. Finally, 7 mL of HEPES buffer was added to the receiving side while an equal volume of drug solution to the dosing side. All the chambers were maintained at 37°C by using a warm water-circulating pump and a mixture of 95% O2 and 5% CO2 aerated to ensure the activity of the membrane. […]

Compound: CO[C@@H]1[C@@H](OC(N)=O)[C@@H](O)[C@H](Oc2ccc3c(O)c(NC(=O)c4ccc(O)c(CC=C(C)C)c4)c(=O)oc3c2C)OC1(C)C [NOVO, novobiocin]
- permeability of NOVO across intestinal segments: much greater in the jejunum than in the ileum and colon
